Source: ChEMBL document CHEMBL1155962, “Dihydropyrazolopyrimidines containing benzimidazoles as K(V)1.5 potassium channel antagonists” (Bioorg Med Chem Lett, 2009)
Values belong to the compound of their own block, whether it stands above or below them. The source made the active and inactive calls. The rule behind the calls is not given here.

Key:
[1] = biological target: T1, Potassium voltage-gated channel subfamily A member 5 (Homo sapiens, UniProt P22460); experiment: Inhibition of human Kv1.5 channel expressed in mouse L929 cells; type: cell-based
[2] = Oral bioavailability in rat at 20 umol/kg; type: ADME, organism-based; conditions: in vivo
[3] = Terminal half life in rat at 10 umol/kg, intra-arterial for 10 mins; type: ADME, organism-based; conditions: in vivo, read-out: beta t1/2 (converted)
[4] = Selectivity for human Kv1.5 channel over calcium channel
[5] = Selectivity for human Kv1.5 channel over sodium channel
[6] = species: Homo sapiens; experiment: Selectivity for human Kv1.5 channel over human ERG
[7] = Inhibition of sodium channel at 10 uM
[8] = Volume of distribution at steady state in rat at 10 umol/kg, intra-arterial for 10 mins; type: ADME, organism-based; conditions: in vivo, read-out: Vdss
[9] = Plasma clearance in rat at 10 umol/kg, intra-arterial for 10 mins; type: ADME, organism-based
[10] = biological target: hERG (KCNH2) (Homo sapiens, UniProt Q12809); experiment: Inhibition of human ERG at 10 uM
[11] = tested on: Oryctolagus cuniculus; experiment: Prolongation of effective refractory period in rabbit ventricle at 0.3 to 10 mg/kg; type: functional, organism-based
[12] = Inhibition of calcium channel at 10 uM
[13] = tested on: Oryctolagus cuniculus; experiment: Prolongation of effective refractory period in rabbit atrium at 3 mg/kg; type: functional, Cardiac atrium
[14] = biological target: T1, Potassium voltage-gated channel subfamily A member 5; experiment: Inhibition of human Kv1.5 channel expressed in mouse L929 cells at >1 uM; type: cell-based

T1 sequence (P22460 whole entry): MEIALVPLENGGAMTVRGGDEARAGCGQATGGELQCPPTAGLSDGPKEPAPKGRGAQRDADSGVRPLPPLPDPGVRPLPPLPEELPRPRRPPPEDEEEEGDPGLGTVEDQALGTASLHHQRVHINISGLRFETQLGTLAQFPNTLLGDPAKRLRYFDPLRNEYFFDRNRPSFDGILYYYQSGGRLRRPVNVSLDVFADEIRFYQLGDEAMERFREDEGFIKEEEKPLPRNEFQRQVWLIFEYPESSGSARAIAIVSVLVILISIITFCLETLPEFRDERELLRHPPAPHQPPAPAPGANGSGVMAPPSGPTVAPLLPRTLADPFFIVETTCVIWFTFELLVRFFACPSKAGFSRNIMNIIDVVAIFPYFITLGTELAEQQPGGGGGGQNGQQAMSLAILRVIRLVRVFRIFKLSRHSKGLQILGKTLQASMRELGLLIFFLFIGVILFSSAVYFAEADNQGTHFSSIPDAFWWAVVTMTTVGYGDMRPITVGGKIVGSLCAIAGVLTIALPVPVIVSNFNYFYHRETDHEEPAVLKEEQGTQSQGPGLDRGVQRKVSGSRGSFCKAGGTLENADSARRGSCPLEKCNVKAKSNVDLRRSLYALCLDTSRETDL
Chain of hERG (KCNH2) (Q12809 whole entry): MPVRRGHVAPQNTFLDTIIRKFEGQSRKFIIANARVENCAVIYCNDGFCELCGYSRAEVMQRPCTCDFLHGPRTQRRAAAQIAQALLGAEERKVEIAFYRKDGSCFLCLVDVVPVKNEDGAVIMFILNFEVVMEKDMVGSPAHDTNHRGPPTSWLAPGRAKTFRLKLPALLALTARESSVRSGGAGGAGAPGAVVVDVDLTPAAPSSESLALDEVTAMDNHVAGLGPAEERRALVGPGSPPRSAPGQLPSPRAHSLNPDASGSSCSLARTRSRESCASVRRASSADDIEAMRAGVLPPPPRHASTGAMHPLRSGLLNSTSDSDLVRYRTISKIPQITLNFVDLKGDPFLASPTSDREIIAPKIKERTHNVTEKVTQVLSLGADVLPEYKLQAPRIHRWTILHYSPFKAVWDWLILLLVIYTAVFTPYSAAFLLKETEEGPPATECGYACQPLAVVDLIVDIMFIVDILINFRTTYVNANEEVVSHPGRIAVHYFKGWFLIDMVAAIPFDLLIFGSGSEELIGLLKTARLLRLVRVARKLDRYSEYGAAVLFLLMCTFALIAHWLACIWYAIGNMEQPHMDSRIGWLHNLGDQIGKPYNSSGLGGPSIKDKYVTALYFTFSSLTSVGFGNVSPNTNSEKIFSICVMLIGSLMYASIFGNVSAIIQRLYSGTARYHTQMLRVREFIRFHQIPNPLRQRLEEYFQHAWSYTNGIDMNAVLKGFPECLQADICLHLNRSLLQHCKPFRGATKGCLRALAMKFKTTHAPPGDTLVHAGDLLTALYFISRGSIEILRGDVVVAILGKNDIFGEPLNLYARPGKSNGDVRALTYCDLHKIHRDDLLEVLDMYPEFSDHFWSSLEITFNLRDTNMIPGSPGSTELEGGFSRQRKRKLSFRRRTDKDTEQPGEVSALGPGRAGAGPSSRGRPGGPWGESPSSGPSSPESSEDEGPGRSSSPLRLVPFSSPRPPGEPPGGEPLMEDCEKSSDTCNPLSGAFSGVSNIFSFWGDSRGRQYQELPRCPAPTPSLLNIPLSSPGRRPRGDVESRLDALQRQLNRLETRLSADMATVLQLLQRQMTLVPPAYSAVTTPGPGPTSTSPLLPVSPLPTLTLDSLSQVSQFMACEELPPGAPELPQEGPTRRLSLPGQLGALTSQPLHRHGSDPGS

Compound: CC1=C(c2nc3cccc(Cl)c3n2C)C(c2ccc(Cl)c(Cl)c2)n2nccc2N1 (stereo not drawn)
IC50 [1]: 71 nM

Compound: CC1=C(c2nc3cccc(C)c3[nH]2)C(c2ccc(Cl)c(Cl)c2)n2nccc2N1 (stereo not drawn)
IC50 [1]: 150 nM

Compound: CC1=C(c2nc3cccc(F)c3n2C)C(c2ccc(Cl)c(Cl)c2)n2nccc2N1 (stereo not drawn)
IC50 [1]: 150 nM

Compound: CC1=C(c2nc3ccc(Cl)cc3n2C)C(c2ccc(Cl)c(Cl)c2)n2nccc2N1 (stereo not drawn)
IC50 [1]: 660 nM

Compound: CC1=C(c2nc3cc(F)ccc3n2C)C(c2ccc(Cl)c(Cl)c2)n2nccc2N1 (stereo not drawn)
bioavailability [2]: 51% | half-life [3]: 0.57 h | Selectivity ratio [4]: > 200 | Selectivity ratio [5]: > 200 | IC50 [1]: 15 nM | Selectivity ratio [6]: > 200 | inhibition [7]: 37% | Vd [8]: 1.6 L/kg | clearance [9]: 35 mL/min/kg | inhibition at 10 µM [10]: 83%

Compound: CC1=C(c2ncc(-c3ccccc3)o2)C(c2ccc(Cl)c(Cl)c2)n2nccc2N1 (stereo not drawn)
IC50 [1]: > 1000 nM | inhibition [14]: 25%

Compound: CC(=O)Nc1ccc2c(c1)nc(C1=C(C)Nc3ccnn3C1c1ccc(Cl)c(Cl)c1)n2C (stereo not drawn)
IC50 [1]: > 1000 nM | inhibition [14]: 8%

Compound: CC1=C(c2nc3cc(C)ccc3n2C)C(c2ccc(Cl)c(Cl)c2)n2nccc2N1 (stereo not drawn)
IC50 [1]: 200 nM

Compound: CCCn1c(C2=C(C)Nc3ccnn3C2c2ccc(Cl)c(Cl)c2)nc2cc(F)ccc21 (stereo not drawn)
IC50 [1]: 48 nM

Compound: CC1=C(c2nc3cc(C#N)ccc3n2C)C(c2ccc(Cl)c(Cl)c2)n2nccc2N1 (stereo not drawn)
IC50 [1]: 220 nM

Compound: CC1=C(c2nnc(-c3ccccc3)o2)C(c2ccc(Cl)c(Cl)c2)n2nccc2N1 (stereo not drawn)
IC50 [1]: > 1000 nM | inhibition [14]: 18%

Compound: CC1=C(c2nc3cc(S(C)(=O)=O)ccc3n2C)C(c2ccc(Cl)c(Cl)c2)n2nccc2N1 (stereo not drawn)
IC50 [1]: > 1000 nM | inhibition [14]: 29%

Second part, led by results:

IC50 [1]: 68 nM
Compound: CC1=C(c2nc3cc(Cl)ccc3n2C)C(c2ccc(Cl)c(Cl)c2)n2nccc2N1 (stereo not drawn)

IC50 [1]: 57 nM
Compound: CCn1c(C2=C(C)Nc3ccnn3C2c2ccc(Cl)c(Cl)c2)nc2cc(Cl)ccc21 (stereo not drawn)

IC50 [1]: 64 nM
Compound: CC1=C(c2nc3c(F)cccc3n2C)C(c2ccc(Cl)c(Cl)c2)n2nccc2N1 (stereo not drawn)

IC50 [1]: 94 nM
Compound: CC1=C(c2nc3cc(Cl)ccc3n2C(C)C)C(c2ccc(Cl)c(Cl)c2)n2nccc2N1 (stereo not drawn)

IC50 [1]: 540 nM
Compound: CC1=C(c2nc3cc(C(F)(F)F)ccc3n2C)C(c2ccc(Cl)c(Cl)c2)n2nccc2N1 (stereo not drawn)

bioavailability [2]: 37% | half-life [3]: 1.5 h | Selectivity ratio [4]: > 200 | Selectivity ratio [5]: > 200 | IC50 [1]: 30 nM | Selectivity ratio [6]: > 200 | inhibition [7]: 27% | inhibition [12]: 13% | Vd [8]: 2.1 L/kg | clearance [9]: 42 mL/min/kg
Compound: COCC1=C(c2nc3cc(F)ccc3n2C)C(c2ccc(Cl)c(Cl)c2)n2nccc2N1 (stereo not drawn)
Activity [11]: inactive | inhibition at 10 µM [10]: 47% | Activity [13]: >20%

IC50 [1]: 980 nM
Compound: CC1=C(c2nc3ccc(C)cc3n2C)C(c2ccc(Cl)c(Cl)c2)n2nccc2N1 (stereo not drawn)

IC50 [1]: 200 nM
Compound: COC(=O)c1ccc2c(c1)nc(C1=C(C)Nc3ccnn3C1c1ccc(Cl)c(Cl)c1)n2C (stereo not drawn)

IC50 [1]: 75 nM
Compound: CC1=C(c2nc3ccccc3n2C)C(c2ccc(Cl)c(Cl)c2)n2nccc2N1 (stereo not drawn)

IC50 [1]: > 1000 nM | inhibition [14]: 29%
Compound: CCCCc1nnc(C2=C(C)Nc3ccnn3C2c2ccc(Cl)c(Cl)c2)o1 (stereo not drawn)

IC50 [1]: 110 nM
Compound: CC1=C(c2nc3cccc(C)c3n2C)C(c2ccc(Cl)c(Cl)c2)n2nccc2N1 (stereo not drawn)

IC50 [1]: 510 nM
Compound: CC1=C(c2nc3ccccc3[nH]2)C(c2ccc(Cl)c(Cl)c2)n2nccc2N1 (stereo not drawn)

IC50 [1]: > 1000 nM | inhibition [14]: 30%
Compound: CC1=C(c2nc3cc(S(=O)(=O)Nc4ccccc4)ccc3n2C)C(c2ccc(Cl)c(Cl)c2)n2nccc2N1 (stereo not drawn)

IC50 [1]: 740 nM
Compound: CC1=C(c2nc3ccccc3s2)C(c2ccc(Cl)c(Cl)c2)n2nccc2N1 (stereo not drawn)
